From paper PMC4303869 (Scientific Reports, 2015) come the findings set out here.

In this assay the target is Aβ42 (amyloid β-protein 42) (Homo sapiens, UniProt P05067). As to the kind of experiment: ThT fluorescence fibrillogenesis assay. It counts as biochemical.
Aβ42 (amyloid β-protein 42), sequence (P05067 672-713): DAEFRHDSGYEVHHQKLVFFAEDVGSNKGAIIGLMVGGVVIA

Turning to `O=C(O[C@@H]1Cc2c(O)cc(O)cc2O[C@@H]1c1cc(O)c(O)c(O)c1)c1cc(O)c(O)c(O)c1` [EGCG], the midpoint of inhibition, the IC50, lay at 2.4 ± 0.4 µM.

Take `Oc1ccc2c(c1)OC[C@]1(O)Cc3cc(O)c(O)cc3[C@H]21` [brazilin]: the IC50 stood at 1.5 ± 0.3 µM.

One may read the IC50 as the midpoint of a concentration-inhibition curve. A high value points to weaker potency.
